Measured values from ChEMBL document CHEMBL1201862, “PubChem BioAssay data set” (2004).
Activity calls are given as the source filed them.

Experiments:
[1] = target: Cytochrome P450 3A4 (Homo sapiens, UniProt P08684);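 also: CYP3A4 tested as one member of a cytochrome P450 panel screen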
[2] = target: Cytochrome P450 2C9 (Homo sapiens, UniProt P11712)
[3] = target: Cytochrome P450 2D6 (Homo sapiens, UniProt P10635);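 also: CYP2D6 member of a cytochrome P450 panel assay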
[4] = target: T1, Intestinal-type alkaline phosphatase (Homo sapiens, UniProt P09923); assay: human intestinal alkaline phosphatase activators, dose response, biochemical, luminescence, uHTS hits (AID 463120); assay type: functional
[5] = target: T1, Intestinal-type alkaline phosphatase; assay: human IAP activators, dose response, biochemical, luminescent, uHTS hits, set 2 (AID 488817); assay type: functional;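 also: potency of activators that raise enzyme activity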
[6] = target: T2, High affinity choline transporter 1 (Homo sapiens, UniProt Q9GZV3); assay: CHT inhibitors, dose response, cell-based, 5-point CRC, membrane potential dye (AID 504840); assay type: functional
T2 sequence (Q9GZV3 whole entry): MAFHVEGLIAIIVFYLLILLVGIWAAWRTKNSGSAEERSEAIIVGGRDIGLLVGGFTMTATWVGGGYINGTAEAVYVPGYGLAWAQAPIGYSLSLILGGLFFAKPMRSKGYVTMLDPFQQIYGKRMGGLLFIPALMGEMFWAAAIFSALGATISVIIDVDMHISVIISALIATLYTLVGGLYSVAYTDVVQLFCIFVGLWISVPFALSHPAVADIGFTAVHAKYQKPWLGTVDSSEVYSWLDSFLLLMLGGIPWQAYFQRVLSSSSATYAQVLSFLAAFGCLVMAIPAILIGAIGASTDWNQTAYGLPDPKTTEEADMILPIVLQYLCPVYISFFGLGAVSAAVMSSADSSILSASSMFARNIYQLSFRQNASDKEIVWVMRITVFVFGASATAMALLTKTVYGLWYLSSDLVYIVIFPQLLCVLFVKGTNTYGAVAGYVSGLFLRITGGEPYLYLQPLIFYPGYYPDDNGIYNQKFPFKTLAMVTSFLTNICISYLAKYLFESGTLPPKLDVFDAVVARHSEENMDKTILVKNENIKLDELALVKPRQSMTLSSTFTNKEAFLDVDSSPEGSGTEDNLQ

[7] = target: Intestinal-type alkaline phosphatase (Mus musculus, UniProt P24822); assay: PubChem AID 488875; assay type: functional
[8] = Luminescence Cell-Based Dose Retest to Confirm Inhibitors of Cancer Stem Cells. [Related pubchem assays (depositor defined):AID2717, AID2721]; assay type: functional; conditions: Homo sapiens
[9] = target: T3, Protein RecA (Mycobacterium tuberculosis, UniProt P9WHJ3); assay: Fluorescence Cell-Free Homogeneous Dose Retest to Identify Inhibitors of RecA-Intein Splicing Activity. [Related pubchem assays (depositor defined):AID2097, AID2223, AID489010, AID492950]; assay type: functional
T3 sequence (P9WHJ3 whole entry): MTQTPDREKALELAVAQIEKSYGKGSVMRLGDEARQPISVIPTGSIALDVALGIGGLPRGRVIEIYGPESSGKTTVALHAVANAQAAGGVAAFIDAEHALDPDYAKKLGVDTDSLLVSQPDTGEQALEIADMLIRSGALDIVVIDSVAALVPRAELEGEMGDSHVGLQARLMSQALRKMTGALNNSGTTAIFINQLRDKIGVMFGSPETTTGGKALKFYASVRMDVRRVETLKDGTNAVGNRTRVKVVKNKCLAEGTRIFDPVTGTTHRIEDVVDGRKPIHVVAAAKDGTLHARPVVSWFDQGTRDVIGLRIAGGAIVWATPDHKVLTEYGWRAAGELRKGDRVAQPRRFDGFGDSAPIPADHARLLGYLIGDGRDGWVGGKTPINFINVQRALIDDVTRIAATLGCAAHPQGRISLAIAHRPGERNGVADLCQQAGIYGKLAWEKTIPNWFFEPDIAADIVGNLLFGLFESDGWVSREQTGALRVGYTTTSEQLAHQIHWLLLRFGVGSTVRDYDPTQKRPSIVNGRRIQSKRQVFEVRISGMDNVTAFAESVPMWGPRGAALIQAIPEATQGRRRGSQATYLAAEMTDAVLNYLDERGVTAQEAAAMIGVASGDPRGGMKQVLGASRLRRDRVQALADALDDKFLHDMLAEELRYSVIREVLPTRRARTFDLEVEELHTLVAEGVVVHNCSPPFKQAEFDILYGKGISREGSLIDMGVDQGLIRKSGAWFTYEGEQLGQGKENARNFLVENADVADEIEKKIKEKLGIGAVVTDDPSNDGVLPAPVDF

[10] = target: T4, Replicative DNA helicase DnaB (Mycobacterium tuberculosis, UniProt P9WMR3); assay: DnaB intein splicing inhibitors, dose response, biochemical, cell-free fluorescence (AID 449749); assay type: functional
T4 sequence (P9WMR3 whole entry): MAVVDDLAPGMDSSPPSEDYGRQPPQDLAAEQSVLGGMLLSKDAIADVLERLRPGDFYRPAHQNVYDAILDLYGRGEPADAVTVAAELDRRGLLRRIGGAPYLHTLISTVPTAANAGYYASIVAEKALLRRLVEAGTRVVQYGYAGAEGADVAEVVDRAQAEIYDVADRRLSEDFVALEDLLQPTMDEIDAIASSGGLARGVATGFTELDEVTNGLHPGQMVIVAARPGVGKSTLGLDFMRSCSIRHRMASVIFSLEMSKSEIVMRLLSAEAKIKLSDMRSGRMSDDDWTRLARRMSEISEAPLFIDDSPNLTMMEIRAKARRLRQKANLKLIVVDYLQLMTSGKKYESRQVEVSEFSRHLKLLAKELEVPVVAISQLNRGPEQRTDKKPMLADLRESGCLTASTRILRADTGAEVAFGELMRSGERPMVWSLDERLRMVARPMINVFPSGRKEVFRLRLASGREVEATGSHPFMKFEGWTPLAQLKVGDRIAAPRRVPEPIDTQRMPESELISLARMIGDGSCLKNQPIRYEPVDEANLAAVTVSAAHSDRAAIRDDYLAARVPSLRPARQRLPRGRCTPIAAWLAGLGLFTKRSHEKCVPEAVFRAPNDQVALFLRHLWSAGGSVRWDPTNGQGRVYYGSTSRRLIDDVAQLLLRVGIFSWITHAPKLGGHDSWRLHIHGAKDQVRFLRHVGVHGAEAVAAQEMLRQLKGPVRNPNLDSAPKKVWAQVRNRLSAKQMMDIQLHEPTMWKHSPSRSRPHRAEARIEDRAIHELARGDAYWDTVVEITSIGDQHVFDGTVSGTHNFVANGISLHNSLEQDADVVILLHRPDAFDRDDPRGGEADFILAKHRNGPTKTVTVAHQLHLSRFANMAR

[11] = target: T5, Alkaline phosphatase, tissue-nonspecific isozyme (Homo sapiens, UniProt P05186); assay: TNAP enzyme activators, dose response, selectivity assay for human IAP activator project, biochemical, TNAP isozyme, human IAP uHTS hits (AID 488886); assay type: functional;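 also: potency of compounds raising TNAP activity as a selectivity check on IAP activators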
T5 sequence (P05186 whole entry): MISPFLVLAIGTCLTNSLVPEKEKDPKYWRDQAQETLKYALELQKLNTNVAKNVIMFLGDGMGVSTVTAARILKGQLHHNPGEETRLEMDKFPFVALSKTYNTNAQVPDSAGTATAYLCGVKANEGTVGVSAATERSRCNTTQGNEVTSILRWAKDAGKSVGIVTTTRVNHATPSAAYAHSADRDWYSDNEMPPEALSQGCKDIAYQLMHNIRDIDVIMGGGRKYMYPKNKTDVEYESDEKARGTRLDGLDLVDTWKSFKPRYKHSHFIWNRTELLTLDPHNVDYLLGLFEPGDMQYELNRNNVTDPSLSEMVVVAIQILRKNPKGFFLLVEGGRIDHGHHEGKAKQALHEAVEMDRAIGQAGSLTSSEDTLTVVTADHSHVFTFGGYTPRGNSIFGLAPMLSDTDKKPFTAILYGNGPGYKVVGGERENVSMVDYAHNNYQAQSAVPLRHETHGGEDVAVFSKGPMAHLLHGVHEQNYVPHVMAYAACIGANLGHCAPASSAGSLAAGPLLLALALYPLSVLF

[12] = target: Trypsin (Sus scrofa, UniProt P00761); assay: porcine trypsin inhibitors, dose response, selectivity assay for Rce1 protease inhibitor project, biochemical, quenched peptide fluorescence, cherry-pick (AID 488789)
[13] = target: T6, Histone-lysine N-methyltransferase NSD2 (Homo sapiens, UniProt O96028); assay type: biochemical
T6 sequence (O96028 whole entry): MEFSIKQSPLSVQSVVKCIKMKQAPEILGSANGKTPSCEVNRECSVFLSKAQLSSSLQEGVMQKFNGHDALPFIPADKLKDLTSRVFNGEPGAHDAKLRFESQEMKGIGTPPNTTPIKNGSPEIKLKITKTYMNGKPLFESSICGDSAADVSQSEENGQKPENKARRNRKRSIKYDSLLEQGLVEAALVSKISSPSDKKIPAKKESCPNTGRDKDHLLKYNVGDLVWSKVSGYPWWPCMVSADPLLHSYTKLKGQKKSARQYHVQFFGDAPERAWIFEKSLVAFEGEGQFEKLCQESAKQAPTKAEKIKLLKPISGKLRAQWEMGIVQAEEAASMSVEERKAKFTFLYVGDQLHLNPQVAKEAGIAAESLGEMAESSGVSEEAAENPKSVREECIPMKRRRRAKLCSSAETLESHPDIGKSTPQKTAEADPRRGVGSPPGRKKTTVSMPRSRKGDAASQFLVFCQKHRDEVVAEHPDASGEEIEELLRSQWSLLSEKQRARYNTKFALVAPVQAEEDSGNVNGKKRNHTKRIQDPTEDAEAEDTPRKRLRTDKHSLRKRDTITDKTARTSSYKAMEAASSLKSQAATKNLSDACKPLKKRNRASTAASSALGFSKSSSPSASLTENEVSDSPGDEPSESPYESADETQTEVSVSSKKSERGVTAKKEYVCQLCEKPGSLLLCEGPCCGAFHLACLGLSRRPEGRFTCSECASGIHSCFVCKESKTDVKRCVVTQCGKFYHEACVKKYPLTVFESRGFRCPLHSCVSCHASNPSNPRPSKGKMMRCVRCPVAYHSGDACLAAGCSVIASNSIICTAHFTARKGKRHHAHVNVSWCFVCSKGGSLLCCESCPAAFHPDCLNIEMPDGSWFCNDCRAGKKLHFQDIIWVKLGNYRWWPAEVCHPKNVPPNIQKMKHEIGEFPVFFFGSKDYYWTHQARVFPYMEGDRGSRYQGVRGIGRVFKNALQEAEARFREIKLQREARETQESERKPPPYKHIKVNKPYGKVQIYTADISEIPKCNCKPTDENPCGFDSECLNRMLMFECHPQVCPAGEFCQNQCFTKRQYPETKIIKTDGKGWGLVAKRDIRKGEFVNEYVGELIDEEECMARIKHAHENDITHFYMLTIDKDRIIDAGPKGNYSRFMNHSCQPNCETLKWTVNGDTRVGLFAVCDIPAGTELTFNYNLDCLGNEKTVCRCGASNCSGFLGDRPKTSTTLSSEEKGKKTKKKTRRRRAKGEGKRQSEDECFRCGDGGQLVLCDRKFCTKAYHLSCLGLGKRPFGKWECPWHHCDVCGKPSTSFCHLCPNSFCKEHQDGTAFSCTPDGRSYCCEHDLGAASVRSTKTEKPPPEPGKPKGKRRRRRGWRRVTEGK

[14] = target: CAAX prenyl protease 1 (Saccharomyces cerevisiae S288c, UniProt P47154); assay: Ste24 protease inhibitors, dose response, biochemical, S. cerevisiae, plate reader, cherry-pick (AID 488815)
[15] = target: T7, Mannose-6-phosphate isomerase (Homo sapiens, UniProt P34949); assay: PMI enzyme inhibitors, confirmation, biochemical, fluorescence intensity (AID 1535)
T7 sequence (P34949 whole entry): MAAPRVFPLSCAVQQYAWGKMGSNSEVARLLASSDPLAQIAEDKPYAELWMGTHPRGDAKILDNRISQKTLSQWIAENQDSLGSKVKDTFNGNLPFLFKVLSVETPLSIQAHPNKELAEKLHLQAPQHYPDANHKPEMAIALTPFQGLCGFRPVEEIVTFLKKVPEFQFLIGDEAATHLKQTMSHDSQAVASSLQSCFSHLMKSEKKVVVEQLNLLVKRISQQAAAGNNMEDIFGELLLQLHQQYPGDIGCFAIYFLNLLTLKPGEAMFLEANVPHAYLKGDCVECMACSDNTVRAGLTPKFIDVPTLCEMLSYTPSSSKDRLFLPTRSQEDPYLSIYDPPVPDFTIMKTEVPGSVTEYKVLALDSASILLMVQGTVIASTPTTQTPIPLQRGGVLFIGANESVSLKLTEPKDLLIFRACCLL

[16] = target: Phosphomannomutase 2 (Homo sapiens, UniProt O15305); assay: Counter screen SAR assay for PMM2 inhibitors via a fluorescence intensity assay. [Related pubchem assays (depositor defined):AID1545, AID1574]
[17] = target: Phosphoethanolamine/phosphocholine phosphatase (Homo sapiens, UniProt Q8TCT1); assay: SAR assay for compounds that inhibit PHOSPHO1. [Related pubchem assays (depositor defined):AID1545, AID1565, AID1574]
Chain of Phosphoethanolamine/phosphocholine phosphatase (Q8TCT1 whole entry): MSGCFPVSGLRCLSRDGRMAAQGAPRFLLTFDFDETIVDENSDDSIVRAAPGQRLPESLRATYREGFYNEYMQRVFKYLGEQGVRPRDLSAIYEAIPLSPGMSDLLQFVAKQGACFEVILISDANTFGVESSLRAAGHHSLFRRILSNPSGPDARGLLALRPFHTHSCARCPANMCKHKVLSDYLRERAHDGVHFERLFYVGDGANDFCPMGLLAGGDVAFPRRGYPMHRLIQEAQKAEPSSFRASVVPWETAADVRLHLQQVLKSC

T1 sequence (P09923 whole entry): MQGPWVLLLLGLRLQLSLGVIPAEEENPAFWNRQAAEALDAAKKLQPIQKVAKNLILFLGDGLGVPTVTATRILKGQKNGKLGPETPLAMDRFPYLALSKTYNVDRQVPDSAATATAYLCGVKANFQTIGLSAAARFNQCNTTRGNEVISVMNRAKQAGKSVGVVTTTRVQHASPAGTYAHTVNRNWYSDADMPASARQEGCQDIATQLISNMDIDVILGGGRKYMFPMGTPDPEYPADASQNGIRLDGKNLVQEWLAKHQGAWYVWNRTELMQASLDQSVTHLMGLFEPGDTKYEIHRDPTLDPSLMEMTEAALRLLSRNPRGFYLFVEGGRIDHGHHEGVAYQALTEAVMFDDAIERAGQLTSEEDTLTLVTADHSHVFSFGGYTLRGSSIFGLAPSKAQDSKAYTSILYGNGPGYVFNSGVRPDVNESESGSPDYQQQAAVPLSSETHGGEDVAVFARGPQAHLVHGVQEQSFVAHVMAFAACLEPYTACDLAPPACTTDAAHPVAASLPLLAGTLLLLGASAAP
Chain of Intestinal-type alkaline phosphatase (Mus musculus, UniProt P24822) (P24822 whole entry): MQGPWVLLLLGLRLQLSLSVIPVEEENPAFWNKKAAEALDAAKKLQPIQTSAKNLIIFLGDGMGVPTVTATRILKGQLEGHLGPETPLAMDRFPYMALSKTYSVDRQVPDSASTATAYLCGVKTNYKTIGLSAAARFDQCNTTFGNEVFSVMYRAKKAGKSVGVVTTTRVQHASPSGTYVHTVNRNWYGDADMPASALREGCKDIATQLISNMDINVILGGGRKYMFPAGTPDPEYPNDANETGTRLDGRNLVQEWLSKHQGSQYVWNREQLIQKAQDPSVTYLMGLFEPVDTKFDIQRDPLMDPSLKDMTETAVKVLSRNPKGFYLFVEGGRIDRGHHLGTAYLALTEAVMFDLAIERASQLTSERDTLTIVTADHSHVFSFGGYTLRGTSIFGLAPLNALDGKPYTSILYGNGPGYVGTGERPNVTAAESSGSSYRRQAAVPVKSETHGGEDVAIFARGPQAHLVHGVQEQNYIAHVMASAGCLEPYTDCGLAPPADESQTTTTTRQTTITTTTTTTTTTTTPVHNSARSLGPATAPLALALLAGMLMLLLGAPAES
Chain of Cytochrome P450 3A4 (P08684 whole entry): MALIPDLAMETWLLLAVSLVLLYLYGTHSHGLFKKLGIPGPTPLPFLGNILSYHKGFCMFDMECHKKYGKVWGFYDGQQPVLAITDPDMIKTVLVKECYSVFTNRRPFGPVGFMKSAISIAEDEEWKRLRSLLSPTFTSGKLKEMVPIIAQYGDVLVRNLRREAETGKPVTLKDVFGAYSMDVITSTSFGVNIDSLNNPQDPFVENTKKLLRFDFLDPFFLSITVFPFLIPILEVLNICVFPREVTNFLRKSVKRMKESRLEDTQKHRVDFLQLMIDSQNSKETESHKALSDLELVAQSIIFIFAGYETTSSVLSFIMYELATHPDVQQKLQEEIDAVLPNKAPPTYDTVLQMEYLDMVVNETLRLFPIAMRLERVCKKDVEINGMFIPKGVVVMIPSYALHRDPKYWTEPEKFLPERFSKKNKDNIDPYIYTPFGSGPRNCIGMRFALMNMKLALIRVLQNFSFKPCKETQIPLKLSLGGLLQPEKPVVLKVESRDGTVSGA
Chain of Cytochrome P450 2D6 (P10635 whole entry): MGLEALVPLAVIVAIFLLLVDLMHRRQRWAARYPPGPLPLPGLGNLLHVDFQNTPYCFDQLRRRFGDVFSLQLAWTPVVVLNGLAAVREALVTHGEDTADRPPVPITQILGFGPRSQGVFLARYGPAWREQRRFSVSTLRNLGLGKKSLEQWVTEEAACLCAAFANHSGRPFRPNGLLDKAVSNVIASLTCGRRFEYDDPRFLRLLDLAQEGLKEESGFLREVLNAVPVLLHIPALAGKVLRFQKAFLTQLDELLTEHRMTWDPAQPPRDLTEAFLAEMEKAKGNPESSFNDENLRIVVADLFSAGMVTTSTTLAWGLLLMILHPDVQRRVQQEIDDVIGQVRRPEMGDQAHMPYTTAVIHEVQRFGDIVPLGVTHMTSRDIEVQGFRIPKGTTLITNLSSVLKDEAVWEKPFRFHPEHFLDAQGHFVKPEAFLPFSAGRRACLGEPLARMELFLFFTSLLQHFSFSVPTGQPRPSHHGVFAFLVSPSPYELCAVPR
Chain of Trypsin (P00761 whole entry): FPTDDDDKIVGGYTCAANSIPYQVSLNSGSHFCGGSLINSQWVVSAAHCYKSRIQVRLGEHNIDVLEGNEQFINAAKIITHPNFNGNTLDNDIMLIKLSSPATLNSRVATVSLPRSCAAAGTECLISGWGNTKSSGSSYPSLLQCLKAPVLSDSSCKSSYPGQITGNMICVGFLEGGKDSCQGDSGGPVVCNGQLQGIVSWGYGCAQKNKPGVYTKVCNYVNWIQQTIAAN
Chain of Cytochrome P450 2C9 (P11712 whole entry): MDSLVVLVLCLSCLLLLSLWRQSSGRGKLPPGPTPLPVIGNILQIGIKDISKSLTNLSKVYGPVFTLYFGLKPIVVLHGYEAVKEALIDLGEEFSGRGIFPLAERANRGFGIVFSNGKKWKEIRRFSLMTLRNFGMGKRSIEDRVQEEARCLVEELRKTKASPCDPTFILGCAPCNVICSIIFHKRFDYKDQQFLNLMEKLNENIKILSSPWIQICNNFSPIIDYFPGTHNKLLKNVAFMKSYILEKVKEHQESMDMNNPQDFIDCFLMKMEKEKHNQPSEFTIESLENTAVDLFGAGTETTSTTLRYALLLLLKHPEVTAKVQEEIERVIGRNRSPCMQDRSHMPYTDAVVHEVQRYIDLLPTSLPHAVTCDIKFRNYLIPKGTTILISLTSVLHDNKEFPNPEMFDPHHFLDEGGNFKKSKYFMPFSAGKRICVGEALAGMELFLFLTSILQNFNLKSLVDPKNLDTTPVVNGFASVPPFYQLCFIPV
Chain of CAAX prenyl protease 1 (P47154 whole entry): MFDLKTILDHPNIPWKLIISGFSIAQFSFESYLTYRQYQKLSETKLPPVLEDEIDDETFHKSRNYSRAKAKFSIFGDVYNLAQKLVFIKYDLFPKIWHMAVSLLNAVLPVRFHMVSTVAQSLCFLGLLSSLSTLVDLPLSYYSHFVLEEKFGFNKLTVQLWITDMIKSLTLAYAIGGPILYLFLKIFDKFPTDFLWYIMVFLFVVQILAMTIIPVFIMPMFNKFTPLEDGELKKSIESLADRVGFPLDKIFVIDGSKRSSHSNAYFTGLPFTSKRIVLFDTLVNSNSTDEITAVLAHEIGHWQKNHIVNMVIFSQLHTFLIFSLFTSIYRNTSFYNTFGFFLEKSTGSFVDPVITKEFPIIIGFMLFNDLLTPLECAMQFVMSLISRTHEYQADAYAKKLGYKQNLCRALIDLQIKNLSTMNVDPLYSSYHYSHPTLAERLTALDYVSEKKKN
Chain of Phosphomannomutase 2 (O15305 whole entry): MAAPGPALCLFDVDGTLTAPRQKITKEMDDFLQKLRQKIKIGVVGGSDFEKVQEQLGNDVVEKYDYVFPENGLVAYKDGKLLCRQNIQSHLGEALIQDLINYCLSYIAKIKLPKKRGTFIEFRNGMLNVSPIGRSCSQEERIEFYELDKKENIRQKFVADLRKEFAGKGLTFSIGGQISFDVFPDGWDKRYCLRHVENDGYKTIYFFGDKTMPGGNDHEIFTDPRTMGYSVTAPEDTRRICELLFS

CCSc1nc(O)c2c3c(sc2n1)COC(C)(CC)C3 (configuration not stated)
AC50 [1]: inconclusive
AC50 [2]: 2.82 µM (inconclusive)
AC50 [3]: inconclusive

Cc1cc(C)cc(CC(Cc2nc3ccccc3[nH]2)c2nc3ccccc3[nH]2)c1 (configuration not stated)
EC50 [4]: 65.7 µM (active)
EC50 [5]: 55.6 µM (active)
IC50 [6]: 15.8 µM (active)
EC50 [7]: 26.6 µM (active)
AC50 [8]: 6.69 µM (active)
EC50 [9]: 83 µM (active)
AC50 [10]: 8.31 µM (active)
EC50 [11]: 69.7 µM (active)

CCN(CC)CCCNc1cc(C)nc2cc(-c3cccs3)nn12
AC50 [12]: 19.4 µM (active)
AC50 [13]: > 20 µM (inactive)
AC50 [14]: 6.24 µM (active)

O=c1c2c(OCC(F)(F)F)cc([N+](=O)[O-])cc2sn1-c1ccc(F)cc1
IC50 [15]: 26.1 µM (active)
IC50 [16]: > 100 µM (inactive)
IC50 [17]: 0.577 µM (active)
